From patent US9777003B2, “Tricyclic heterocycles as bet protein inhibitors” (Incyte Corporation, priority 2013, dated 2017)
Where a name gives a salt, the structure may show the parent alone.

Assays:
[1] = biological target: BRD4-BD1 (Homo sapiens (Human), UniProt O60885); experiment: BRD4 AlphaScreen assay, BRD4-BD1; type: binding; settings: biotin-labeled tetra-acetylated histone H4 peptide, 75 min, room temperature, read-out: BRD4 BD-1 enzyme IC50
Method in brief: (§1)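 IC50 values from percent-control versus log inhibitor fits after bead-based proximity readout (streptavidin donor, GSH acceptor, 75 min dark). Reactions: 75 min RT, pH 7.4 HEPES, biotin-H4Ac4 peptide 50 nM, with BD1 at 3.8 nM (DMSO 1.25%) and BD2 at 20 nM (DMSO 0.83%).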

[2] = biological target: BRD4-BD2 (Homo sapiens (Human), UniProt O60885); experiment: BRD4 AlphaScreen assay, BRD4-BD2; type: binding; settings: biotin-labeled tetra-acetylated histone H4 peptide, 75 min, room temperature, read-out: BRD4 BD-2 enzyme IC50
Method in brief: as §1

Row | Structure (SMILES) | IC50 [1] [nM] | IC50 [2] [nM]
1 | Cc1nnc2ccc3c(cc(C(F)(F)F)n3Cc3ccccc3)n12 [Example 138, 6-Benzyl-1-methyl-7-(trifluoromethyl)-6H-pyrrolo[2,3-e][1,2,4]triazolo[4,3-a]pyridine Trifluoroacetate Salt] | 100 to 1000 | 100 to 1000
2 | CNC(=O)Nc1cc2c(cc(C)n2Cc2cc(Cl)cc(CN3CCCC3)c2)n2c(C)nnc12 [Example 142, N-{6-[3-Chloro-5-(pyrrolidin-1-ylmethyl)benzyl]-1,7-dimethyl-6H-pyrrolo[2,3-e][1,2,4]triazolo[4,3-a]pyridin-4-yl}-N′-methylurea bis(trifluoroacetate) Salt] | ≤ 100 | ≤ 100
3 | Cc1nnc2ccc3c(cc(-c4ncco4)n3Cc3ccccc3)n12 [Example 143, 6-benzyl-1-methyl-7-(1,3-oxazol-2-yl)-6H-pyrrolo[2,3-e][1,2,4]triazolo[4,3-a]pyridine Trifluoroacetate Salt] | ≤ 100 | ≤ 100
4 | Cc1cc2c(cc(NC3CCOCC3)c3nnc(C)n32)n1Cc1ccccc1 [Example 146, 6-benzyl-1,7-dimethyl-N-(tetrahydro-2H-pyran-4-yl)-6H-pyrrolo[2,3-e][1,2,4]triazolo[4,3-a]pyridin-4-amine] | ≤ 100 | ≤ 100
5 | Cc1cc2c(cc(N[C@@H]3CCOC3)c3nnc(C)n32)n1Cc1ccccc1 [Example 147, 6-benzyl-1,7-dimethyl-N-[(3R)-tetrahydrofuran-3-yl]-6H-pyrrolo[2,3-e][1,2,4]triazolo[4,3-a]pyridin-4-amine] | ≤ 100 | ≤ 100
6 | Cc1cc2c(cc(N[C@H]3CCOC3)c3nnc(C)n32)n1Cc1ccccc1 [Example 148, 6-benzyl-1,7-dimethyl-N-[(3S)-tetrahydrofuran-3-yl]-6H-pyrrolo[2,3-e][1,2,4]triazolo[4,3-a]pyridin-4-amine] | ≤ 100 | ≤ 100
7 | Cc1cc2c(cc(N[C@@H]3CCN(C(=O)OC(C)(C)C)C3)c3nnc(C)n32)n1Cc1ccccc1 [Example 149, tert-butyl (3R)-3-[(6-benzyl-1,7-dimethyl-6H-pyrrolo[2,3-e][1,2,4]triazolo[4,3-a]pyridin-4-yl)amino]pyrrolidine-1-carboxylate] | 100 to 1000 | ≤ 100
8 | Cc1cc2c(cc(N[C@H]3CCN(C(=O)OC(C)(C)C)C3)c3nnc(C)n32)n1Cc1ccccc1 [Example 150, tert-butyl (3S)-3-[(6-benzyl-1,7-dimethyl-6H-pyrrolo[2,3-e][1,2,4]triazolo[4,3-a]pyridin-4-yl)amino]pyrrolidine-1-carboxylate] | ≤ 100 | ≤ 100
9 | Cc1cc2c(cc(N[C@@H]3CCNC3)c3nnc(C)n32)n1Cc1ccccc1 [Example 151, 6-benzyl-1,7-dimethyl-N-[(3R)-pyrrolidin-3-yl]-6H-pyrrolo[2,3-e][1,2,4]triazolo[4,3-a]pyridin-4-amine bis(trifluoroacetate) Salt] | ≤ 100 | ≤ 100
10 | Cc1cc2c(cc(N[C@H]3CCNC3)c3nnc(C)n32)n1Cc1ccccc1 [Example 152, 6-benzyl-1,7-dimethyl-N-[(3S)-pyrrolidin-3-yl]-6H-pyrrolo[2,3-e][1,2,4]triazolo[4,3-a]pyridin-4-amine bis(trifluoroacetate) Salt] | ≤ 100 | ≤ 100
11 | Cc1cc2c(cc(NC3CCN(C)CC3)c3nnc(C)n32)n1Cc1ccccn1 [Example 153, 1,7-dimethyl-N-(1-methylpiperidin-4-yl)-6-(pyridin-2-ylmethyl)-6H-pyrrolo[2,3-e][1,2,4]triazolo[4,3-a]pyridin-4-amine] | ≤ 100 | ≤ 100
12 | Cc1cc2c(cc(NC3CCN(C)CC3)c3nnc(C)n32)n1Cc1cccnc1 [Example 154, 1,7-dimethyl-N-(1-methylpiperidin-4-yl)-6-(pyridin-3-ylmethyl)-6H-pyrrolo[2,3-e][1,2,4]triazolo[4,3-a]pyridin-4-amine] | ≤ 100 | ≤ 100
13 | Cc1nnc2ccc3c(cc(-c4ccn[nH]4)n3Cc3cccc(Cl)c3)n12 [Example 155, 6-(3-chlorobenzyl)-1-methyl-7-(1H-pyrazol-5-yl)-6H-pyrrolo[2,3-e][1,2,4]triazolo[4,3-a]pyridine bis(trifluoroacetate) Salt] | ≤ 100 | ≤ 100
14 | CCN1CC(CC#N)(n2ccc(-c3cc4c(ccc5nnc(C)n54)n3Cc3cccc(Cl)c3)n2)C1 [Example 158, (3-{3-[6-(3-Chlorobenzyl)-1-methyl-6H-pyrrolo[2,3-e][1,2,4]triazolo[4,3-a]pyridin-7-yl]-1H-pyrazol-1-yl}-1-ethylazetidin-3-yl)acetonitrile bis(trifluoroacetate) Salt] | ≤ 100 | ≤ 100
15 | CCN1CC(n2ccc(-c3cc4c(ccc5nnc(C)n54)n3Cc3cccc(Cl)c3)n2)C1 [Example 160, 6-(3-Chlorobenzyl)-7-[1-(1-ethylazetidin-3-yl)-1H-pyrazol-3-yl]-1-methyl-6H-pyrrolo[2,3-e][1,2,4]triazolo[4,3-a]pyridine bis(trifluoroacetate) Salt] | ≤ 100 | ≤ 100
16 | Cc1nnc2ccc3c(cc(-c4ccn(C5CN(S(=O)(=O)N(C)C)C5)n4)n3Cc3cccc(Cl)c3)n12 [Example 161, 3-{3-[6-(3-Chlorobenzyl)-1-methyl-6H-pyrrolo[2,3-e][1,2,4]triazolo[4,3-a]pyridin-7-yl]-1H-pyrazol-1-yl}-N,N-dimethylazetidine-1-sulfonamide bis(trifluoroacetate) Salt] | ≤ 100 | ≤ 100
17 | Cc1nnc2ccc3c(cc(-c4ccn(C5CN(C(=O)CN(C)C)C5)n4)n3Cc3cccc(Cl)c3)n12 [Example 162, 2-(3-{3-[6-(3-Chlorobenzyl)-1-methyl-6H-pyrrolo[2,3-e][1,2,4]triazolo[4,3-a]pyridin-7-yl]-1H-pyrazol-1-yl}azetidin-1-yl)-N,N-dimethyl-2-oxoethanamine bis(trifluoroacetate) Salt] | ≤ 100 | ≤ 100
18 | CCC(=O)N1CC(n2ccc(-c3cc4c(ccc5nnc(C)n54)n3Cc3cccc(Cl)c3)n2)C1 [Example 163, 6-(3-Chlorobenzyl)-1-methyl-7-[1-(1-propionylazetidin-3-yl)-1H-pyrazol-3-yl]-6H-pyrrolo[2,3-e][1,2,4]triazolo[4,3-a]pyridine Trifluoroacetate Salt] | ≤ 100 | ≤ 100
19 | Cc1nnc2ccc3c(cc(-c4ccn(C5CN(C(=O)C6CC6)C5)n4)n3Cc3cccc(Cl)c3)n12 [Example 164, 6-(3-Chlorobenzyl)-7-{1-[1-(cyclopropylcarbonyl)azetidin-3-yl]-1H-pyrazol-3-yl}-1-methyl-6H-pyrrolo[2,3-e][1,2,4]triazolo[4,3-a]pyridine Trifluoroacetate Salt] | ≤ 100 | ≤ 100
20 | Cc1nnc2ccc3c(cc(-c4ccn(C5CN(S(=O)(=O)C6CC6)C5)n4)n3Cc3cccc(Cl)c3)n12 [Example 165, 6-(3-Chlorobenzyl)-7-{1-[1-(cyclopropylsulfonyl)azetidin-3-yl]-1H-pyrazol-3-yl}-1-methyl-6H-pyrrolo[2,3-e][1,2,4]triazolo[4,3-a]pyridine Trifluoroacetate Salt] | ≤ 100 | ≤ 100
21 | CCS(=O)(=O)N1CC(n2ccc(-c3cc4c(ccc5nnc(C)n54)n3Cc3cccc(Cl)c3)n2)C1 [Example 166, 6-(3-Chlorobenzyl)-7-{1-[1-(ethylsulfonyl)azetidin-3-yl]-1H-pyrazol-3-yl}-1-methyl-6H-pyrrolo[2,3-e][1,2,4]triazolo[4,3-a]pyridine Trifluoroacetate Salt] | ≤ 100 | ≤ 100
22 | CCOC(=O)N1CC(n2ccc(-c3cc4c(ccc5nnc(C)n54)n3Cc3cccc(Cl)c3)n2)C1 [Example 167, Ethyl 3-{3-[6-(3-chlorobenzyl)-1-methyl-6H-pyrrolo[2,3-e][1,2,4]triazolo[4,3-a]pyridin-7-yl]-1H-pyrazol-1-yl}azetidine-1-carboxylate Trifluoroacetate Salt] | ≤ 100 | ≤ 100
23 | Cc1nnc2ccc3c(cc(-c4ccn(CCC(=O)NC5COC5)n4)n3Cc3cccc(Cl)c3)n12 [Example 168, 3-{3-[6-(3-Chlorobenzyl)-1-methyl-6H-pyrrolo[2,3-e][1,2,4]triazolo[4,3-a]pyridin-7-yl]-1H-pyrazol-1-yl}-N-oxetan-3-ylpropanamide Trifluoroacetate Salt] | ≤ 100 | ≤ 100
24 | Cc1nnc2ccc3c(cc(-c4ccn(CCC(=O)N5CCOCC5)n4)n3Cc3cccc(Cl)c3)n12 [Example 169, 6-(3-Chlorobenzyl)-1-methyl-7-[1-(3-morpholin-4-yl-3-oxopropyl)-1H-pyrazol-3-yl]-6H-pyrrolo[2,3-e][1,2,4]triazolo[4,3-a]pyridine Trifluoroacetate Salt] | ≤ 100 | ≤ 100
25 | Cc1nnc2ccc3c(cc(-c4ccn(CCC(=O)NC5CCOCC5)n4)n3Cc3cccc(Cl)c3)n12 [Example 170, 3-{3-[6-(3-Chlorobenzyl)-1-methyl-6H-pyrrolo[2,3-e][1,2,4]triazolo[4,3-a]pyridin-7-yl]-1H-pyrazol-1-yl}-N-(tetrahydro-2H-pyran-4-yl)propanamide Trifluoroacetate Salt] | ≤ 100 | ≤ 100
26 | Cc1nnc2ccc3c(cc(-c4ccn(CCC(=O)NC5CN(C)C5)n4)n3Cc3cccc(Cl)c3)n12 [Example 171, 3-{3-[6-(3-Chlorobenzyl)-1-methyl-6H-pyrrolo[2,3-e][1,2,4]triazolo[4,3-a]pyridin-7-yl]-1H-pyrazol-1-yl}-N-(1-methylazetidin-3-yl)propanamide bis(trifluoroacetate) Salt] | ≤ 100 | ≤ 100
27 | Cc1nnc2ccc3c(cc(-c4c[nH]cn4)n3Cc3cccc(Cl)c3)n12 [Example 172, 6-(3-Chlorobenzyl)-7-(1H-imidazol-4-yl)-1-methyl-6H-pyrrolo[2,3-e][1,2,4]triazolo[4,3-a]pyridine bis(trifluoroacetate) Salt] | ≤ 100 | ≤ 100
